How the values were obtained:
HeLa cells [1] = experiment: Transwell invasion assay (Matrigel); format: cell-based, human; conditions: 24 h, control 172
Description: The transwell ([…], Corning Incorporated, New York, NY, USA) was precoated using 50 μL Matrigel for 5 h at 37 °C to achieve solidification. […] After 24 h of incubation at 37 °C, the invasion cells were fixed using methanol and stained using 0.1% crystal violet for 30 min, respectively. Then, the chambers were washed using PBS and left to dry. Images were photographed using an inverted fluorescence microscope (Leica, Microsystems CMS GmbH, GER) and counted using Image J software (V1.8.0.112) for three independent fields randomly.

p-VEGFR-2 = experiment: Western blot, VEGFR-2 phosphorylation in HeLa/DDP cells; format: cell-based, human; conditions: 4 and 6 μM, versus blank group, p < 0.05
Description: (§1) Next, the protein concentrations were determined using a BCA Protein Assay Kit (Solarbio, China). An equal amount of the proteins (12 μg) were separated using 8–12% sodium dodecyl sulfate–polyacrylamide gel electrophoresis (SDS-PAGE) and transferred to nitrocellulose membranes (Amersham Biosciences, Little Chalfont, Buckinghamshire, UK). Then, the membranes were blocked with 5% nonfat dried milk in TBS containing 1% Tween-20 for 2 h at room temperature and were incubated overnight with specific primary antibodies (CST, Boston, MA, USA) at 4 °C. After three washes in TBST, the membranes were incubated with the appropriate HRP-conjugated secondary antibodies at room temperature for 2 h. The blots were developed using enhanced chemiluminescence (Biosharp, Shanghai, China) and were detected using a PE 0723 imager (ProteinSimple, Silicon Valley, CA, USA). Each experiment was performed at least in triplicate and analyzed using Image J software (V1.8.0.112). […]
To reduce the adverse reactions caused by the fixation of drug resistance reversal agents, the concentration that reduces the proliferation rate of tumor cells by less than 10% was selected. Therefore, the inhibitory activity of compound 6f on HeLa/DDP cells was determined in the concentration ranges of 0.25, 0.5, and 1 μM combined with cisplatin. […]

VEGFR-2 = biological target: T1, VEGFR-2 (Homo sapiens, UniProt P35968); experiment: VEGFR-2 inhibition test (human p-VEGFR-2 ELISA in HeLa cells); format: cell-based; conditions: ± SD, read-out: 48h IC50 VEGFR-2 inhibitory effect
T1 construct: endogenous in cells; host or cells: HeLa cells
T1 sequence (P35968 20-1356): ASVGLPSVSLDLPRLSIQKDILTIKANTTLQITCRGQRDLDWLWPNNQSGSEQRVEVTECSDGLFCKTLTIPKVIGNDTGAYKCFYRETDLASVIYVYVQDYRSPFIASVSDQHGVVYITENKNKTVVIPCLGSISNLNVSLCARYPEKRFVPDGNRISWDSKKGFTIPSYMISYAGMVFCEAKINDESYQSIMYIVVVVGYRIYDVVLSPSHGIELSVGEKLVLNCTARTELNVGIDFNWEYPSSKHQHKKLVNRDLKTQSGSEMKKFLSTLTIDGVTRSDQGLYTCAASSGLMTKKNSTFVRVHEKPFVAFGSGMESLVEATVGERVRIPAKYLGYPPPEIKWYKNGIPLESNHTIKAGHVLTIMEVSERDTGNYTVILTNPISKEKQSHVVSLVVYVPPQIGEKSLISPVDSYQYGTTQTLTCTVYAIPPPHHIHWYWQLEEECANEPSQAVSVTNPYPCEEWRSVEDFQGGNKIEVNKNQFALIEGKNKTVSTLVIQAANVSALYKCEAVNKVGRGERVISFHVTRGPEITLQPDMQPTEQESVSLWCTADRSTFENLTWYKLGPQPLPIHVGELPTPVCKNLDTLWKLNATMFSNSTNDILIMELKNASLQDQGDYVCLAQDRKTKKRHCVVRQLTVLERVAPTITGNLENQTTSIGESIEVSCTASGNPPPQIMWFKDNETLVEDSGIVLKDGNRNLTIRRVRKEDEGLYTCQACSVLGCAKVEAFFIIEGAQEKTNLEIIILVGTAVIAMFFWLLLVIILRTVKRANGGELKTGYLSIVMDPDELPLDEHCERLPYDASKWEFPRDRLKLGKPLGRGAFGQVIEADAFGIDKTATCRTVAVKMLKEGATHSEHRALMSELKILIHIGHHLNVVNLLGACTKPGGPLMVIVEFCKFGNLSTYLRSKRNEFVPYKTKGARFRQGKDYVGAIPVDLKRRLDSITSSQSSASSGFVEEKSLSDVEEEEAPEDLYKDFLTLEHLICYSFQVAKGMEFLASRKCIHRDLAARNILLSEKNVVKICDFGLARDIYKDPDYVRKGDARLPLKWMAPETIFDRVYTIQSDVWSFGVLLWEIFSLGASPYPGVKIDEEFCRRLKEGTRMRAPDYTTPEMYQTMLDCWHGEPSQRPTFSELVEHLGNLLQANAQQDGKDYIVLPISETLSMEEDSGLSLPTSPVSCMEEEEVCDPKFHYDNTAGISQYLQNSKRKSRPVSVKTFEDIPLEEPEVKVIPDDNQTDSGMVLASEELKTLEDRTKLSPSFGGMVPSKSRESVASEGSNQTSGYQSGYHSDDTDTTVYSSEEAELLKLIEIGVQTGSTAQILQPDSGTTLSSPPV
Description: Specimens, standards, and HRP-labeled detection antibodies were added sequentially to the pre-covered microtiter wells containing phosphorylated vascular endothelial growth factor receptor 2 (p-VEGFR2) antibodies, warmed, and washed thoroughly. The substrate TMB was added for color development. This substrate is converted to blue using peroxidase catalysis to a final yellow color due to the action of acid. […] Curve fitting was performed using SPSS 23.0 software to calculate IC50.

HeLa cells [2] = experiment: Transwell migration assay; format: cell-based, human; conditions: 24 h, control 1205
Description: Initially, HeLa (5 × 10^4 cells) were suspended in 200 μL of an FBS-free medium. […] The lower chamber was filled with 600 μL of medium containing 10% FBS. After incubating at 37 °C for 24 h, the cells on the top side of the transwell membrane were removed with a cotton tip. The cells trapped on the bottom side of the membrane were fixed using methanol and stained using 0.1% crystal violet solution for 30 min, respectively.

HUVEC cells = experiment: In vitro HUVEC inhibitory assay (MTT); format: cell-based; conditions: Homo sapiens, 48 h, ± SD
Description: (§2) HeLa and SiHa cell lines were obtained from the Procell Life Science Technology Co., Ltd. (Wuhan, China); H8 cell line was obtained from the Shanghai HonSun Biological Technology Co., Ltd. (Shanghai, China); HUVEC cell line was obtained from the Saibaikang (Shanghai) Biotechnology Co., Ltd. (Shanghai, China); HeLa/DDP cell line was obtained from the Guangzhou Jenniobio Biotechnology Co., Ltd. (Guangzhou, China). HeLa, SiHa, H8, and HeLa/DDP cells were cultured in DMEM medium (HyClone). The VEGF of 50 ng/mL was used as the promoter of the VEGFR-2 receptor on HUVEC cell membrane surfaces, and their inhibitory effects on VEGFR-2 were determined. All the mediums were supplemented with 10% FBS (HyClone, GE Healthcare, Australia). Cells were maintained at subconfluency at 37 °C in humidified air containing 5% CO2. The cells were monitored daily and maintained at 80% cell density. All compounds tested were dissolved in DMSO and then diluted by the culture medium before the treatment of cultured cells. Identification reports are available for all types of cell lines involved in this study.
(§3) The cytotoxicity of the target compounds were measured in vitro using the MTT assay. Cells grown in the logarithmic phase were counted and seeded in 96-well cell culture plates (5 × 10^3 cells per well) for 24 h to allow attachment of cells to the wall of the plate. […] Next, 20 μL of 5 mg.mL^−1 MTT solution was added to each well and cultured for 4 h. The old solution was discarded, replaced with 150 μL DMSO solution per well, and shaken for 10 min. The OD value was measured under 490 nm, and the inhibition rate was calculated. The nonlinear regression fitting of the cell growth rate was carried out using SPSS 23.0 software, and the IC50 of the compound was calculated. […] There were 6 compound holes in each group, and the experimental results were presented as the average of 3 experiments. A complete medium containing only cells was used as the blank control, whereas a complete medium without cells was the negative control group. Cisplatin and sorafenib were utilized as the positive control group, and the target compound was the experimental intervention group.
After incubation for 24 h, the cell was collected using centrifugation and washed twice using PBS chilled to 0 °C. Then, the cells were homogenized in RIPA lysis buffer and 1% PMSF, 1% mixed phosphatase inhibitor (Solarbio, Beijing, China). The lysates were incubated on ice for 30 min, intermittently vortexed every 5 min, and centrifuged at 12,000 rpm for 20 min to harvest the supernatants.

p-AKT (Ser473) = experiment: Western blot, p-AKT in HeLa cells; format: cell-based, human; conditions: HeLa, 2, 4 and 6 μM, 24 h
Description: as §1

SiHa cells = experiment: MTT antiproliferative assay, SiHa cells; format: cell-based, human; conditions: Homo sapiens, 48 h, mean ± SD
Description: as §2, §3

`COc1cc(O)c(C(=O)/C=C/c2ccc(CN3CCC(C)CC3)cc2)cc1CN1CCC(O)CC1` [6f, (E)-1-(2-hydroxy-5-((4-hydroxypiperidin-1-yl)methyl)-4-methoxyphenyl)-3-(4-((4-methylpiperidin-1-yl)methyl)phenyl)prop-2-en-1-one] was tested, and the “number of invading cells” value (HeLa cells [1]; 2 μM) was 91, the “number of invading cells” value (HeLa cells [1]; 4 μM) was 50 and the “number of invading cells” value (HeLa cells [1]; 6 μM) was 35. The “phosphorylation of VEGFR-2 in HeLa/DDP cells (Western blot)” value (p-VEGFR-2) was “noteworthy ability to impede the phosphorylation of VEGFR-2”, the IC50 (VEGFR-2) was 0.75 ± 0.05 µM and the “number of migrating cells” value (HeLa cells [2]; 2 μM) was 372. For the same compound, the “number of migrating cells” value (HeLa cells [2]; 4 μM) was 132, the “number of migrating cells” value (HeLa cells [2]; 6 μM) was 71 and the IC50 (HUVEC cells) was 7.14 ± 0.91 µM. For the same compound, the “p-AKT (Ser473) in HeLa cells (Western blot)” value (p-AKT (Ser473)) was “effective downregulation” and the IC50 (SiHa cells) was 7.88 ± 0.52 µM.
